Molecular target: T1, Alpha-1A adrenergic receptor (Homo sapiens, UniProt P35348)
T1 sequence (P35348 whole entry): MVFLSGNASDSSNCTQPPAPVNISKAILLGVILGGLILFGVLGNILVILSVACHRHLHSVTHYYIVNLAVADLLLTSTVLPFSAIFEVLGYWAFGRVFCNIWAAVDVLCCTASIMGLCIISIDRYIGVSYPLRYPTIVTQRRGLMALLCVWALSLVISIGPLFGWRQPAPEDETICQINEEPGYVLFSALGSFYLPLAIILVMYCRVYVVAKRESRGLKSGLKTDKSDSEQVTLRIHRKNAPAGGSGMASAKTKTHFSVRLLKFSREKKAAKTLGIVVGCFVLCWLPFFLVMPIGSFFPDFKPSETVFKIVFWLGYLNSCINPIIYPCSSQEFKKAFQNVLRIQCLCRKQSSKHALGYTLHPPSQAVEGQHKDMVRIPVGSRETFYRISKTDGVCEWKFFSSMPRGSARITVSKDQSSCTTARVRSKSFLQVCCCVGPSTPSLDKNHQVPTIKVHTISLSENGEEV
Assay: Binding affinity to Homo sapiens (human) alpha1A adrenergic receptor

Row | SMILES | Ki [nM]
1 | COC(=O)C1=C(C)NC(C)=C(C(=O)NCCCN2CCC(C(=O)OC)(c3ccccc3)CC2)C1c1ccc([N+](=O)[O-])cc1 (stereo unspecified) | 3.55
2 | COC(=O)C1=C(C)NC(C)=C(C(=O)NCCCCN2CCC(c3ccccc3)(c3ccccc3)CC2)C1c1ccc([N+](=O)[O-])cc1 (racemic) | 14.8
3 | COC(=O)C1(c2ccccc2)CCN(CCCNC(=O)C2=C(C)NC(C)=C(C(=O)OCCO)C2c2ccc([N+](=O)[O-])cc2)CC1 (stereo unspecified) | 3.63
4 | COC(=O)C1=C(C)NC(C)=C(C(=O)NCCCN2CCC(c3ccccc3)(c3ccccc3)CC2)C1c1ccc(C)cc1 (racemic) | 1.38
5 | COC(=O)C1=C(C)NC(C)=C(C(=O)NCCCN2CCC(c3ccccc3)CC2)C1c1ccc(Cl)c([N+](=O)[O-])c1 (racemic) | 0.525
6 | COC(=O)C1=C(C)NC(C)=C(C(=O)NCCCN2CCC(c3ccccc3)CC2)C1c1ccc([N+](=O)[O-])cc1 (racemic) | 0.229

Reference: ChEMBL document CHEMBL3045488, “3D-QSAR STUDIES ON SUBSTITUTED DIHYDROPYRIDINES FOR THEIR 1A-ADRENERGIC RECEPTOR BINDING AFFINITY” (Med Chem Res, 2004)
